One assay has as its target EGFR WT (Homo sapiens, UniProt P00533). Kind of assay: HTRF-based EGFR biochemical assay, WT. The following applies: 100 μM ATP, enzyme 5 nM. In general terms: Time-resolved FRET reads energy transfer from a long-lived donor to a nearby acceptor.
For another assay, the target named is EGFR L858R (Homo sapiens, UniProt P00533, L858R). Kind of assay: HTRF-based EGFR biochemical assay, L858R. The following applies: 100 μM ATP, enzyme 0.1 nM. How it is done:
(§1) EGFR biochemical activity measurements were carried out using the homogeneous time-resolved fluorescence (HTRF) assay (Cisbio). Inhibitors and DMSO normalizations were first dispensed to empty black low-volume 384-well plates (Corning) with D300 digital liquid dispenser (HP). All reactions were carried out at room temperature and solutions were added to plates with a Multidrop Combi Reagent Dispenser (ThermoFisher). The reaction mixture (10 μL final volume) contained 1 μM tyrosine kinase peptide-biotin substrate and mutant EGFR in a reaction buffer (50 mM HEPES pH 7.0, 5 mM MgCl2, 1 mM MnCl2, 0.01% BSA, 2 mM TCEP, 0.1 mM NaVO4). […] Enzyme reaction solution (2× concentrations, 5 μL) was added to 384-well plates containing compounds and incubated for 30 mins. Enzyme reactions were initiated with the addition of 5 μL of ATP to a final concentration of 100 μM and reacted for 20 mins.

The target of another assay is EGFR L858R/T790M (Homo sapiens, UniProt P00533, L858R/T790M). Kind of assay: HTRF-based EGFR biochemical assay, L858R/T790M. The following applies: 100 μM ATP, enzyme 0.02 nM. How it is done: as §1
The target of the next assay is EGFR L858R/T790M/C797S (Homo sapiens, UniProt P00533, C797S/L858R/T790M). The experiment in a line: HTRF-based EGFR biochemical assay, L858R/T790M/C797S. The following applies: 100 μM ATP, enzyme 0.02 nM. How it is done: as §1
The next assay deals with WT EGFR Ba/F3 cells (Homo sapiens, UniProt P00533, cells depend on it, form not given). Kind of assay: Ba/F3 cell proliferation (Cell Titer Glo), WT. In kind it is cell-based, murine. As to conditions: Ba/F3, 72 hours, value in parentheses, meaning not explained, read-out: WT, inhibition of growth (value in parentheses). How it is done:
(§2) 100 units/mL streptomycin. The EGFR I941R mutation was introduced via site directed mutagenesis using the Quick Change Site-Directed Mutagenesis kit (Stratagene; La Jolla, CA) according to the manufacturer's instructions. All constructs were confirmed by DNA sequencing. The constructs were shuttled into the retroviral vector JP1540 using the Cre-recombination system (Agilent Technologies, Santa Clara, CA). […] Stable clones were obtained by selection in puromycin (2 μg/ml).
(§3) Growth and inhibition of growth was assessed by the Cell Titer Glo assay (Promega, Madison, WI) and was performed according to the manufacturer's instructions. The Cell Titer Glo assay is a luminescence-based method used to determine the number of viable cells based on quantitation of the ATP present, which is directly proportional to the amount of metabolically active cells present. […] All experimental points were set up in triplicates in 384-well plates and all experiments were repeated at least three times. […] The curves were fitted using a non-linear regression model with a sigmoidal dose response.
A general note: In ATP-based viability assays light output follows the ATP content of the culture.

The next assay has as its target EGFR L858R Ba/F3 cells (Homo sapiens, UniProt P00533, L858R, cells depend on it). Kind of assay: Ba/F3 cell proliferation (Cell Titer Glo), L858R. The assay is classed as cell-based, murine. As to conditions: Ba/F3, 72 hours, value in parentheses, meaning not explained, read-out: L858R, inhibition of growth (value in parentheses). How it is done:
as §2, §3

For assay [1], the target named is EGFR L858R/T790M Ba/F3 cells (Homo sapiens, UniProt P00533, T790M/L858R, cells depend on it). Kind of assay: Ba/F3 cell proliferation (Cell Titer Glo), L858R/T790M. The following applies: Ba/F3, 72 hours, value in parentheses, meaning not explained, read-out: L858R/T790M, inhibition of growth (value in parentheses). The assay is classed as cell-based, murine. How it is done:
as §2, §3

The target in assay [2] is EGFR L858R/T790M/C797S Ba/F3 cells (Homo sapiens, UniProt P00533, T790M/C797S/L858R, cells depend on it). The experiment in a line: Ba/F3 cell proliferation (Cell Titer Glo), L858R/T790M/C797S. The assay is classed as cell-based, murine. The following applies: Ba/F3, 72 hours, value in parentheses, meaning not explained, read-out: L858R/T790M/C797S, inhibition of growth (value in parentheses). How it is done: as §2, §3
EGFR L858R/T790M/C797S Ba/F3 cells, sequence (P00533 whole entry T790M/C797S/L858R): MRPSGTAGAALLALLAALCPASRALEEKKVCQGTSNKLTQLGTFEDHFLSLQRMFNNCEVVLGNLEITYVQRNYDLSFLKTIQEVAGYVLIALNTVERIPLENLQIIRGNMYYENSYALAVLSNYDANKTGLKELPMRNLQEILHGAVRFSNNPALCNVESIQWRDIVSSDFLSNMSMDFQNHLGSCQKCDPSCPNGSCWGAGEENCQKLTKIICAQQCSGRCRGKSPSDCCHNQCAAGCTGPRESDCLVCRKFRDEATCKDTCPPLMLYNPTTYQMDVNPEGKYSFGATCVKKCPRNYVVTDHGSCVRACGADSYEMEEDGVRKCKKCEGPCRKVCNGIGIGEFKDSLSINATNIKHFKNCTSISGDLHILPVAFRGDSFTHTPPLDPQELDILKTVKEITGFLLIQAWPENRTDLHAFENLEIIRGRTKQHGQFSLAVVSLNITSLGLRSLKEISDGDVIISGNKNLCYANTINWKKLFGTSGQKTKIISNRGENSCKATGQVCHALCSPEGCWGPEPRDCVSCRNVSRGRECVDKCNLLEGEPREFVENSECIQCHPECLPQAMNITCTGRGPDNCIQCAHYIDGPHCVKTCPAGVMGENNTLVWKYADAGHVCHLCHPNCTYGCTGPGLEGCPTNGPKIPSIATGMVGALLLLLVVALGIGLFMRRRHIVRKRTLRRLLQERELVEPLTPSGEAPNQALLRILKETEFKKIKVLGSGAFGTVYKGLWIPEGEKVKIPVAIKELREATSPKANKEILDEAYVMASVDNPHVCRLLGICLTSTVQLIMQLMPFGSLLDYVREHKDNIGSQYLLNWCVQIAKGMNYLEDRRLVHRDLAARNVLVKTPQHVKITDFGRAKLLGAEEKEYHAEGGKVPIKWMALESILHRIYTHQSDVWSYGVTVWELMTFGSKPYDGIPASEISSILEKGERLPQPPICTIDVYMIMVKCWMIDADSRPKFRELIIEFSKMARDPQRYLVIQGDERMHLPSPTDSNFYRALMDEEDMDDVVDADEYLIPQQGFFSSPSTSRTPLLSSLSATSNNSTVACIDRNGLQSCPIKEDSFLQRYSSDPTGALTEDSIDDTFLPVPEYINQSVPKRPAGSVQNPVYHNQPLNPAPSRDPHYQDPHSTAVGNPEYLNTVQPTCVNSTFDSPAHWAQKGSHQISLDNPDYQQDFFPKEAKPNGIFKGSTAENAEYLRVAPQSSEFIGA

Molecules are shown by their SMILES.

EGFR L858R/T790M Ba/F3 cells, sequence (P00533 whole entry T790M/L858R): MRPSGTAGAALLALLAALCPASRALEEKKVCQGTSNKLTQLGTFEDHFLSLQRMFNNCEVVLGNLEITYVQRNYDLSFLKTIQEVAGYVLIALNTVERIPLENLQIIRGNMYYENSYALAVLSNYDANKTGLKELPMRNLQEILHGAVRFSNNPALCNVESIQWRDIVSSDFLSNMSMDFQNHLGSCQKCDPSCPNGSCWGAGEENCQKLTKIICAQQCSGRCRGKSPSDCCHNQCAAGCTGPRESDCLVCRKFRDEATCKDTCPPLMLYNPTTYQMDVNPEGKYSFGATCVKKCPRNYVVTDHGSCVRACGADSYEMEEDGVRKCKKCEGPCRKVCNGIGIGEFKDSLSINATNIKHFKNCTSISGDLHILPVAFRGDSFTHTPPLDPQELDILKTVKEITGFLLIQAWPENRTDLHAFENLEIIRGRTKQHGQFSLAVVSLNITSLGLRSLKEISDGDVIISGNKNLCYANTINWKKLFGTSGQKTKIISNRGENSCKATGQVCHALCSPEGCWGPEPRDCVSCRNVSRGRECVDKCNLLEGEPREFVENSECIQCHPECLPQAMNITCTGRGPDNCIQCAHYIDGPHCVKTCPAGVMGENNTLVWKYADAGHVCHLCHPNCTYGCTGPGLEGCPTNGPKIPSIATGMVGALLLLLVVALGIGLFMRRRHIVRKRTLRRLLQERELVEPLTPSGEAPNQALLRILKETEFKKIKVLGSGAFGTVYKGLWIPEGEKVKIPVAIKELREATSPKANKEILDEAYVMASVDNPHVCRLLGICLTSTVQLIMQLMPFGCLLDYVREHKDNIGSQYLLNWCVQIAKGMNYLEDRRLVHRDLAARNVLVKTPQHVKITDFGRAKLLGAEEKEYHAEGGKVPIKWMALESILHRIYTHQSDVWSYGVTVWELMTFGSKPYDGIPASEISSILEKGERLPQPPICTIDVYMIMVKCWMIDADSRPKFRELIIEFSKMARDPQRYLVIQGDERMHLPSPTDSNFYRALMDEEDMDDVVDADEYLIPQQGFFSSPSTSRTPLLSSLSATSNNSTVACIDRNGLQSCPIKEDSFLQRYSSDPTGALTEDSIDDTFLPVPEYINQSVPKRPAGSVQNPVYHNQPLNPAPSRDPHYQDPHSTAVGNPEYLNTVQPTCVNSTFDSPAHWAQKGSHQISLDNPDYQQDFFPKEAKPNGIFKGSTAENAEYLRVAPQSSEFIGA
EGFR L858R Ba/F3 cells, sequence (P00533 whole entry L858R): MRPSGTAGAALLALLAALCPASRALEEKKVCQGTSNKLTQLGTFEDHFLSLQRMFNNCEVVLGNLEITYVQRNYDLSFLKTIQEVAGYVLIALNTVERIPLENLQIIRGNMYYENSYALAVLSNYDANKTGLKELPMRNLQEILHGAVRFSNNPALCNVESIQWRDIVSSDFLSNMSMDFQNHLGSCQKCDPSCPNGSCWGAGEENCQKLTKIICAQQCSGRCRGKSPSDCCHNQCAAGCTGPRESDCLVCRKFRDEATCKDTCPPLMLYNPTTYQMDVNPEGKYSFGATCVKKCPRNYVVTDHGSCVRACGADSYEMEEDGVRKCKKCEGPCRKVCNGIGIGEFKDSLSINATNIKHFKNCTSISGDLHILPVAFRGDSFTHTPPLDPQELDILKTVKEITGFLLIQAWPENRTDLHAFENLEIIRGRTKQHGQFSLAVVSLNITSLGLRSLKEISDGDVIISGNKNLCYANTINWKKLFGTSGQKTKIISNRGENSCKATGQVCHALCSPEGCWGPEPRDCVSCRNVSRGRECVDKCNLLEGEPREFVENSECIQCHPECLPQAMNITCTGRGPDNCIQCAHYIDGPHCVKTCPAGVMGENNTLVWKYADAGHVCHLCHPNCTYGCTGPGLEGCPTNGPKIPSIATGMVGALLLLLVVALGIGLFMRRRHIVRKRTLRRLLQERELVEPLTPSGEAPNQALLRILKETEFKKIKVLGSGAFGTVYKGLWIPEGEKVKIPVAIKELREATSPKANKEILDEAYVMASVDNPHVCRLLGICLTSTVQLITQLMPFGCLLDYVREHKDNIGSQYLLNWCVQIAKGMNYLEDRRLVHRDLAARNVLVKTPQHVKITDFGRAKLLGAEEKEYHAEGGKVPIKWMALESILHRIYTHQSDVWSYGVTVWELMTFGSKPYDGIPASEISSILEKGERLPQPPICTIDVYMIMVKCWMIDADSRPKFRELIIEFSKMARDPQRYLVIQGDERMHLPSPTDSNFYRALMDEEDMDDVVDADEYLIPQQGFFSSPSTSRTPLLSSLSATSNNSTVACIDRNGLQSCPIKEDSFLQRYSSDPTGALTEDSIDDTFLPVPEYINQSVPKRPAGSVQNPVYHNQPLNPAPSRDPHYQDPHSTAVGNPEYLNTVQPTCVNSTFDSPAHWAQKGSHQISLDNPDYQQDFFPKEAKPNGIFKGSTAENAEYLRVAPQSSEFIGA
WT EGFR Ba/F3 cells, sequence (P00533 whole entry, stated change not applied): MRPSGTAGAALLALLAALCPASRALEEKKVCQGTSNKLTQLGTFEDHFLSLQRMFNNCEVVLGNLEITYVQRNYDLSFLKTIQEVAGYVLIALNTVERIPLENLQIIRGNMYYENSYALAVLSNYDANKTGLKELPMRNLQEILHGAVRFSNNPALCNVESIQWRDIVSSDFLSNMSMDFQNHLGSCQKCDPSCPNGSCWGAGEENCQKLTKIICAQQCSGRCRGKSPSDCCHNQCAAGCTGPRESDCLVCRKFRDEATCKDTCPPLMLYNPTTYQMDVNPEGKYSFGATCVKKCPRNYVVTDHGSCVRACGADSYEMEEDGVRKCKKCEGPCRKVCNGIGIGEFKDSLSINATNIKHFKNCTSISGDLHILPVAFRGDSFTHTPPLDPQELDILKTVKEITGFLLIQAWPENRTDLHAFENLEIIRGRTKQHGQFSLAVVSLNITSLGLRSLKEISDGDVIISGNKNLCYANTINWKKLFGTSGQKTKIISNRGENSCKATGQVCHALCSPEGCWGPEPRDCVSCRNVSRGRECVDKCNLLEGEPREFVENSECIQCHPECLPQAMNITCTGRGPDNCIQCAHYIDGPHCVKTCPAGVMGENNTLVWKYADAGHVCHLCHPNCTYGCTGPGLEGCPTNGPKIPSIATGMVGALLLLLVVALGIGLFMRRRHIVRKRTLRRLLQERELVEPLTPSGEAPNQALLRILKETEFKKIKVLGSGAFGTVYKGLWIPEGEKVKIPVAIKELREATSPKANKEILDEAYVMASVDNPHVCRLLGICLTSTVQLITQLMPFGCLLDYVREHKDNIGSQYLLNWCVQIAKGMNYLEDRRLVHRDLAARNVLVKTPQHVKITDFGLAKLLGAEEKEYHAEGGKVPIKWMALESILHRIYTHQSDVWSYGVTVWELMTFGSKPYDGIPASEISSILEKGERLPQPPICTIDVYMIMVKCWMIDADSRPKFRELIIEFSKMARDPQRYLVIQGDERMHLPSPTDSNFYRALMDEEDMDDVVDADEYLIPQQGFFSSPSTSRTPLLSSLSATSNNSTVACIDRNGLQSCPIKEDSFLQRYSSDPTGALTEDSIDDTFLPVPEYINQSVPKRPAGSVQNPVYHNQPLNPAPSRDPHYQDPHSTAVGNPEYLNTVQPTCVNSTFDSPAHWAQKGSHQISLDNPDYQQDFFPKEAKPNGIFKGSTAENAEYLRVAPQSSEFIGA

A word on the IC50: it is the concentration at which inhibition is half-maximal. Higher therefore signals weaker potency in that assay. For `C=CC(=O)Nc1ccc(OC)c(Nc2cc(-c3[nH]c(SC)nc3-c3cccc(NC(=O)c4ccccc4CN4Cc5ccccc5C4=O)c3)ccn2)c1` [Compound 064, N-(3-(5-(2-((5-acrylamido-2-methoxyphenyl)amino)pyridin-4-yl)-2-(methylthio)-1H-imidazol-4-yl)phenyl)-2-((1-oxoisoindolin-2-yl)methyl)benzamide], the concentration for half-maximal inhibition (IC50) on EGFR WT stood at 701 nM; against EGFR L858R, 11 nM; on EGFR L858R/T790M, 8 nM; on EGFR L858R/T790M/C797S, 206 nM. Also, the EC50 at WT EGFR Ba/F3 cells is > 4000 nM; on EGFR L858R Ba/F3 cells, 500 nM; in assay [1], 2500 nM; in assay [2], > 10000 nM.

Turning to `CSc1nc(-c2cccc(NC(=O)c3ccccc3CN3C(=O)c4ccccc4C3=O)c2)c(-c2ccnc(Nc3ccccc3)c2)[nH]1` [Compound 067, 2-((1,3-dioxoisoindolin-2-yl)methyl)-N-(3-(2-(methylthio)-5-(2-(phenylamino)pyridin-4-yl)-1H-imidazol-4-yl)phenyl)benzamide], the EC50 at WT EGFR Ba/F3 cells is > 3300 nM; on EGFR L858R Ba/F3 cells, > 8700 nM; in assay [1], > 10000 nM; in assay [2], > 10000 nM.

In the case of `CSc1nc(-c2cccc(NC(=O)c3ccccc3CN3Cc4ccccc4C3=O)c2)c(-c2ccnc(NC(C)=O)c2)[nH]1` [Compound 047, N-(3-(5-(2-acetamidopyridin-4-yl)-2-(methylthio)-1H-imidazol-4-yl)phenyl)-2-((1-oxoisoindolin-2-yl)methyl)benzamide], the IC50 on EGFR WT was > 100000 nM; against EGFR L858R, 96 nM; at EGFR L858R/T790M, 759 nM; against EGFR L858R/T790M/C797S, 610 nM. Besides, the EC50 at WT EGFR Ba/F3 cells was > 4300 nM; on EGFR L858R Ba/F3 cells, > 10000 nM; in assay [1], > 10000 nM; in assay [2] it was > 10000 nM.

For `CSc1nc(-c2cccc(NC(=O)c3ccccc3CN3Cc4ccccc4C3=O)c2)c(-c2ccnc(Nc3ccccc3)c2)[nH]1` [Compound 069, N-(3-(2-(methylthio)-5-(2-(phenylamino)pyridin-4-yl)-1H-imidazol-4-yl)phenyl)-2-((1-oxoisoindolin-2-yl)methyl)benzamide], the EC50 is > 2100 nM at WT EGFR Ba/F3 cells, > 5300 nM at EGFR L858R Ba/F3 cells, > 5600 nM in assay [1] and > 10000 nM in assay [2].

On to `CSc1nc(-c2cccc(NC(=O)c3c(F)ccc(O)c3CN3C(=O)c4ccccc4C3=O)c2)c(-c2ccnc(Nc3ccccc3)c2)[nH]1` [Compound 068, 2-((1,3-dioxoisoindolin-2-yl)methyl)-6-fluoro-3-hydroxy-N-(3-(2-(methylthio)-5-(2-(phenylamino)pyridin-4-yl)-1H-imidazol-4-yl)phenyl)benzamide], for which the EC50 on WT EGFR Ba/F3 cells is > 5600 nM; at EGFR L858R Ba/F3 cells, > 10000 nM; in assay [1] it was > 10000 nM; in assay [2] it was > 10000 nM.

Values taken from patent publication US20230406838A1, “MUTANT SELECTIVE EGFR INHIBITORS AND METHODS OF USE THEREOF” (Dana-Farber Cancer Institute, Inc., priority 2020, published 2023).
